Measured values published in US20090318568A1, “ADHERENT COATING FOR TISSUE SURFACE AND/OR TRANS-TISSUE SURFACE SUBSTANCE DELIVERY” (priority 2009, published 2009).

Legend:
[1] = Analysis of the filtered paclitaxel solution in glycerol + 1,2-propylene glycol; type: physicochemical; settings: 100 mg paclitaxel in 100 g USP glycerol warmed to about 50° C.
Experimental: To this mixture, 60 g of 1,2-propylene glycol was added; the new mixture was mixed, and warmed further.

[2] = Analysis of the paclitaxel residue dissolved in 1,2-propylene glycol; type: physicochemical; settings: 100 g 1,2-propylene glycol, 135° C. for 45 min
Experimental: The residue from filtering the glycerol solution of EXAMPLE 1 was added to 100 g of 1,2-propylene glycol, and the resulting mixture warmed to 50° C.; little of the solid material appeared to dissolve. The mixture was then placed in an oven at 135° C. and heated for 45 min.

- concentration in solution [2]: 230 µg/mL
Structure (SMILES): CC(=O)O[C@H]1C(=O)[C@@]2(C)[C@H]([C@H](OC(=O)c3ccccc3)[C@]3(O)C[C@H](OC(=O)[C@H](O)[C@@H](NC(=O)c4ccccc4)c4ccccc4)C(C)=C1C3(C)C)[C@]1(OC(C)=O)CO[C@@H]1C[C@@H]2O [paclitaxel]
- dissolution in glycerol (observation) [1]: little of the paclitaxel appeared to dissolve
